In one test the test system is human adipocytes. Kind of test: Calcium imaging of hydrogel-bound adipocytes (Fluo-4 AM). The note with it: stretched human adipocytes. It is filed as cell-based. From the text:
Calcium imaging was used to determine in vitro Ca^2+ flow in hydrogel-bound adipocytes with or without mechanical strain and with or without Piezo1 inhibitor treatment. A Fluo-4, AM cell permeant kit (ThermoFisher, Cat: F-14201) was used per the manufacturer's instructions. […] Imagej was used for image quantification.

The subject of test [1] is wounds. Kind of test: Visium spatial transcriptomic analysis of wounds. The class given is in vivo, mouse. The procedure: (§1) Wound specimens were rapidly harvested and flash frozen in OCT. Using the Visium Tissue Optimization Slide and Reagent Kit, permeabilization time was optimized at a thickness at 10 μm per section and 37 minutes for mouse tissue. Following cryo-sectioning at −20 degrees onto gene expression slides the expression slide and reagent kit was used to produce sequencing libraries. The libraries were then sequences using NextSeq (Illumina). Following demultiplication the raw FASTQ files and histology images were processed by sample with the Space Ranger software for genome alignment. The raw spaceranger output files for each sample was then read into a Seurat class object in R using Seurat's Load10× function. Data was normalized using the SCT transform with default parameters. To ascertain the integration of our scRNAseq and Visium spatial analysis we employed the FindTransferAnchors( ) function from Seurat, which allowed the alignment of data using the two datasets. This cross-platform linkage is performed serially in an unconstrained and constrained fashion.

In test [2] the test system is wounds. Kind of test: CODEX spatial protein analysis of POD 14 wounds. The note with it: POD 14, vs PBS. The class given is in vivo, mouse. From the text: To spatially phenotype the pig specimens, we used Co-Detection by Indexing (CODEX), a novel assay in which markers are labeled with oligonucleotide-conjugated antibodies and iteratively imaged between cyclic additions and washouts of dye-labeled oligonucleotides. A custom CODEX panel was designed to assess wound cells within the tissue see Table 1). In brief, primary antibodies were individually barcoded and validated using the commercial supplier's protocols. OCT for mouse or paraffin blocks for human xenograft (n=3 per group) were sectioned at 8 μm thickness onto coverslips for CODEX antibody staining. Antigens were retrieved by standard citrate-EDTA processing prior to addition of CODEX antibodies. Using a CODEX-integrated Keyence BZ-X instrument (Akoya Biosciences) image acquisition was then performed. Using software from Akoya Biosciences the raw images were process, with cell segmentation, and rendering.
The CODEX was visualized using Akoya Biosciences Multiplex Analysis Viewer (MAV) in ImageJ. The resulting .fcs files were then concatenated in FlowJo and imported into the Monocle3 and STvEA R packages for further analysis. After debris removal, the processed UMAP manifold was analyzed through Monocle3 with a post-manifold threshold of >10,000 cells per cluster. Analysis of the protein staining patterns was then used to assign cell types. The cell interactions were then inferred using STvEA for cell types at >2.5% of total abundance at k=20 nearest neighbors to quantify cell spatial interactions, and differential interaction maps were generated using graph scores.

Another test relates to existing scars. Kind of test: Visium spatial transcriptomic analysis of treated existing scars. The class given is in vivo, mouse. The procedure: as §1
To further analyze the spatial gene expression following scar rescue, the Visium platform was applied to scars treated with P1i or PBS at POD 30, 75, and 120 (FIG. 9A). Similar to analysis of acute wound healing, the epidermal, dermal, and hypodermal layers were easily elucidated from the spatial transcriptomic analysis in scars at POD 60 (FIG. 9B). Furthermore, the expected cell types including fibroblasts, immune, epithelial, and adipocytes were identified by spatial expression of representative genes (FIG. 36A).

Test [3] concerns human foreskin xenograft wounds. Nature of the test: Human foreskin xenograft wound model. The class given is in vivo. The note with it: POD 14. The protocol:
For the xenograft model, adult immunocompromised CD-1 nude mice were purchased from The Jackson Laboratory (Bar Harbor, ME). Mice were maintained at the Stanford University Research Animal Facility, SIM-1 Barrier Facility in accordance with Stanford University guidelines. All experiments were performed under an approved APLAC protocol (APLAC #11048). 3 mice were used for each group.
Discarded postnatal human foreskin samples were collected after circumcision at the Lucille Packard Children's Hospital at Stanford under a Stanford University Institutional Review Board (IRB) approved protocol (IRB #45219). Samples were not used if collected >8 hours after circumcision; samples were kept in Dulbecco's Modified Eagle Medium (ThermoFisher Scientific™, Waltham, MA) on ice until grafting. Foreskin was prepared by removal of all subcutaneous tissue, including muscle, and divided into 1 cm sections to be grafted.
Nude mice were induced and maintained with 2-4% isoflurane (Product: 502017, MWI Veterinary Supply Co.®; Boise, ID) at a rate of 2 L/min. While anesthetized, Betadine Surgical Scrub Veterinary (Avrio Health L.P.™, Stamford, CT) and sterile alcohol prep pads (FisherScientific™, Pittsburgh, PA) were used to prepare the dorsum. A 1.2 cm full-thickness excision of dorsal skin was created with forceps and sharp scissors. The foreskin graft was then placed into the full-thickness wound. […]
Background: Xenograft models place foreign cells or tissue in a host animal.

No end group written: not given here.

As for “GsMTx4 (GCLEFWWKCNPNDDKCCRPKLKCSKLFKLCNFSF; ends and bridges not checked; cysteine pairing not given here; UniProt Q7YT39 47-80, looked up) [P1i]”, the “calcium staining with stretching” value with human adipocytes is “decreased”. Moreover, in the test with wounds [1] (POD 14), the “differential interaction maps (Visium)” value is “strong interactions between adipocytes and fibroblasts”; the “fibroblast scRNA-seq cluster 0 (mechanically sensitive) spatial enrichment” value is recorded as “highly enriched in PBS-treated POD 14 wounds compared to P1i or P2i treated wounds”; the “fibroblast scRNA-seq cluster 5 (mechanically naive) spatial presence” value is reported as “observed”; the “spatial expression of Piezo1, Piezo2, Ptk2 and Yap1” value is given as “appeared mostly at the basal region”. In addition, the “spatially variable features (gene expression)” value with wounds [1] (POD 14) was “high expression of markers associated with the epidermis including Krt1 and Krt14”. Moreover, in the test on wounds [1] (POD 14, vs PBS), the “adipocyte and epithelial cells in the spatial environment” value was “enriched”. In the test with wounds [2], the “Lef1 (new hair follicle formation)” value was “highly expressed”; the “adipocyte-fibroblast spatial interactions (CODEX)” value is recorded as “reduced adipocyte-fibroblast interactions”; the “individual adipocyte-fibroblast subpopulation interactions (CODEX)” value is “enriching the interactions of adipocyte cluster 2 with fibroblast clusters 2 and 4”. In addition, the spatially identified adipocytes entry in the test on existing scars (POD 60, 105 and 150, vs PBS) was “greater in number”. In the test on existing scars (existing scars), the “differential interaction maps (Visium)” value is “larger number of interactions between adipocytes and epithelial cells”; the “differentially expressed genes during scar rescue” value is “high expression of genes associated with the epidermis”. Further, the “spatial expression of Piezo1, Piezo2, Yap1 and Ptk2” value with existing scars (existing scars, all timepoints) was “observed mostly at the basal aspects of the wounds”. Moreover, the ECM ultrastructure result in test [3] is listed as “indistinguishable from that of unwounded xenograft skin”.

The values are drawn from US20250195474A1, “Piezo Inhibition for Wound Healing” (priority 2022, published 2025).
